For 29 compounds, Ki and ED50 results are on record in patent US6867210B2, “Aryl substituted pyrimidines” (Euro-Celtique S.A., priority 2000, dated 2005).

Structures can show the parent of a compound that is named as a salt. Where two headings read alike, the source gives them in different places.

One may read the ED50 as the dose at which the effect has come halfway, by size or by number of responders.

Assay [1] has as its target rBIIa/beta 1 sodium channels expressed in Xenopus oocytes (Rattus norvegicus, UniProt P04775). As to the kind of experiment: Electrophysiological Assay 2: two-electrode voltage clamp in Xenopus oocytes. Type of assay: cell-based. Conditions: apparent Ki for the inactivated state from single point inhibition data, read-out: RBIIA/β1 Ki. Here is the method: Electrophysiological Assay 2 was used to measure potencies of compounds of the present invention rBIIa/beta 1 sodium channels expressed in Xenopus oocytes.
Preparation of cRNA encoding cloned rat brain type IIa (rBIIa) and beta 1 (β1): cDNA clones encoding the rat brain beta 1 subunit were cloned in house using standard methods, and mRNA were prepared by standard methods. mRNA encoding rBIIa was provided by Dr. A. Golden (UC Irvine). The mRNAs were diluted and stored at −80° C. in 1 μL aliquots until injection.
Preparation of oocytes: Mature female Xenopus laevis were anaesthetized (20-40 min) using 0.15% 3-aminobenzoic acid ethyl ester (MS-222) following established procedures (Woodward, R. M., et al., Mol. Pharmacol. 41:89-103 (1992)).
Two to six ovarian lobes were surgically removed. Oocytes at developmental stages V-VI were dissected from the ovary, oocytes were still surrounded by enveloping ovarian tissues. Oocytes were defolliculated on the day of surgery by treatment with collagenase (0.5 mg/mL Sigma Type I, or Boehringer Mannheim Type A, for 0.5-1 hr). Treated oocytes were vortexed to dislodge epithelia, washed repeatedly and stored in Barth's medium containing 88 mM NaCl, 1 mM KCl, 0.41 mM CaCl2, 0.33 mM Ca(NO3)2, 0.82 mM MgSO4, 2.4 mM NaHCO3, 5 mM HEPES, pH 7.4 adjusted with 0.1 mg/mL gentamycin sulphate.
Micro-injection of oocytes: Defolliculated oocytes were micro-injected using a Nanoject injection system (Drummond Scientific Co., Broomall, Pa.). Injection pipettes were beveled to minimize clogging. Tip diameter of injection pipettes was 15-35 μm. Oocytes were microinjected with approximately 50 nL 1:10 ratio mixtures of cRNAs for rBIIa and beta 1 respectively.
Electrophysiology: Membrane current responses were recorded in frog Ringer solution containing 115 mM NaCl, 2 mM KCl, 1.8 mM CaCl2, 5 mM HEPES, pH 7.4. Electrical recordings were made using a conventional two-electrode voltage clamp (Dagan TEV-200) over periods ranging between 1-7 days following injection. The recording chamber was a simple gravity fed flow-through chamber (volume […] depending on adjustment of aspirator). Oocytes were placed in the recording chamber, impaled with electrodes and continuously perfused (5-15 mL min^−1) with frog Ringer's solution. The tested compounds were applied by bath perfusion.
Voltage protocols for evoking sodium channel currents: The standard holding potential for whole oocyte clamp was −120 mV. Standard current-voltage relationships were elicited by 40 ms depolarizing steps starting from −60 mV to +50 mV in 10 mV increments. Peak currents were measured as the maximum negative current after depolarizing voltage steps. The voltage from maximum current response was noted and used for the next voltage protocol.
The purpose was to find compounds that are state dependent modifiers of neuronal sodium channels. Preferably, the compounds have a low affinity for the rested/closed state of the channel, but a high affinity for the inactivated state. The following voltage protocol was used to measure a compounds affinity for the inactivated state. Oocytes were held at a holding potential of −120 mV. At this membrane voltage, nearly all of the channels would be in the closed state. Then a 4 second depolarization was made to the voltage where the maximum current was elicited. At the end of this depolarization, nearly all the channels would be in the inactivated state. A 10 ms hyperpolarizing step was then made in order to remove some channels from the incativated state. A final depolarizing test pulse was used to assay the sodium current after this prolonged depolarization (see analysis below). Sodium currents were measured at this test pulse before and after the application of the tested compound. Data was acquired using pClamp 8.0 software and analyzed with clampfit software (Axon instruments). […]
On the technique in general: In two-electrode clamp one electrode senses voltage and the other passes current.

The subject of assay [2] is maximal electroshock-induced seizures (MES). Briefly: Maximum electroshock seizure test (MES), anticonvulsant evaluation. The assay is classed as in vivo. Conditions: Mus musculus, mice. An excerpt:
The compounds of the present invention may be tested for in vivo anticonvulsant activity after i.v., p.o. or i.p. injection using a number of anticonvulsant tests in mice, including the maximum electroshock seizure test (MES). Maximum electroshock seizures were induced in male NSA mice weighing between 15-20 g and male Sprague-Dawley rats weighing between 200-225 g by application of current (50 mA, 60 pulses/sec, 0.8 msec pulse width, 1 sec duration, D.C., mice; 99 mA, 125 pulses/sec, 0.8 msec pulse width, 2 sec duration, D.C., rats) using a Ugo Basile ECT device (Model 7801). Mice were restrained by gripping the loose skin on their dorsal surface and saline-coated corneal electrodes were held lightly against the two corneae. Rats were allowed free movement on the bench top and ear-clip electrodes were used. […] A tonic seizure was defined as a hindlimb extension in excess of 90 degrees from the plane of the body. Results were treated in a quantal manner.
The ability of 4-[4-(4-fluorophenoxy)phenyl]-pyrimidine-2-carboxamide to block maximal electroshock-induced seizures (MES) was determined according to the method above.
4-[4-(4-Fluorophenoxy)phenyl]-pyrimidine-2-carboxamide was administered p.o. to mice 30 minutes before the test procedure.
The following compounds on Table 1 were tested accordingly after a p.o. administration and also after an i.v. injection. The compounds were injected i.v. 15 minutes before the test procedure.

Setting [3] is: iv, i.v. injection 15 minutes before the test, read-out: MES i.v. ED50.
Setting [4] is: po, p.o., 30 minutes before the test, ED50 = dose protecting 50% of animals, read-out: MES p.o. ED50.

For the compound `O=C(NCCN1CCCCC1)c1cccc(-c2ccc(Oc3ccc(F)cc3)cc2)n1` [Compound 3, 6-[4-(4-fluorophenoxy)Phenyl]Pyridine Carboxylic Acid N-piperidinylethylamide], in assay [1], the Ki was found to be 0.06 µM.

As for `NC(=O)c1nccc(-c2ccc(Oc3ccc([N+](=O)[O-])cc3)cc2)n1` [4-[4-(4-Nitrophenoxy)phenyl]-pyrimidine-2-carboxamide], the ED50 is 3.1 mg/kg in assay [2] (setting [3]) and 10 mg/kg in assay [2] (setting [4]). Moreover, in assay [1], the Ki was 1.13 µM.

As to `CSc1ccc(-c2cccc(C(N)=O)n2)cc1` [Compound 8d, 6-(4-thiomethylphenyl)pyridine-2-carboxamide], the Ki in assay [1] was 52.7 µM.

Regarding `CNC=NC(=O)c1nccc(-c2ccc(Oc3ccc(F)cc3)cc2)n1` [4-[4-(4-fluorophenoxy)phenyl]pyrimidine-2-carboxylic acid methylaminomethyleneamide hydrochloride], the Ki in assay [1] was determined as 11.4 µM.

`Cc1nc(-c2ccc(Oc3ccc(F)cc3)cc2)ccc1C(N)=O` [2-methyl-6-[4-(4-fluorophenoxy)phenyl]pyridine-3-carboxamide]: the Ki in assay [1] was 8.45 µM.

Take `O=CNC(=O)c1nccc(-c2ccc(Oc3ccc(F)cc3)cc2)n1` [4-[4-(4-fluorophenoxy)phenyl]pyrimidine-2-carboxylic acid hydroxymethyleneamide]: the ED50 amounted to 1.5 mg/kg in assay [2] (setting [3]) and 5 mg/kg in assay [2] (setting [4]). For the same compound, the Ki in assay [1] is 3.53 µM.

In the case of `CC(C)c1ccc(-c2cccc(C(N)=O)n2)cc1` [Compound 8c, 6-(4-i-propylphenyl)pyridine-2-carboxamide], the Ki in assay [1] was 41.6 µM.

Consider `CCOc1ccc(-c2cccc(C(N)=O)n2)cc1` [Compound 8e, 6-(4-ethoxyphenyl)pyridine-2-carboxamide], for which the Ki in assay [1] amounted to 58.7 µM.

In the case of `COc1cc(C(N)=O)nc(-c2ccc(Oc3ccc(F)cc3)cc2)c1` [Compound 18, 4-Methoxy-6-[4-(4-fluorophenoxy)phenyl]pyridine-2-carboxamide], the Ki in assay [1] came to 3.43 µM.

For `N#Cc1ccc(C(N)=O)nc1-c1ccc(Oc2ccccc2)cc1` [5-cyano-6-(4-phenoxyphenyl)pyridine-2-carboxamide], the Ki in assay [1] was 11.9 µM.

`NC(=O)c1ccc(-c2ccc(Oc3ccc(F)cc3)cc2)nc1C(N)=O` [6-[4-(4-fluorophenoxy)phenyl]pyridine-2,3-dicarboxamide]: the Ki in assay [1] amounted to 4.54 µM.

As to `CN(C)C(=O)c1cc(N(C)C)nc(-c2ccc(Oc3ccccc3)cc2)n1` [2-(4-phenoxyphenyl)-6-(dimethylamino)pyrimidine-4-carboxylic acid dimethylamide], the ED50 in assay [2] (setting [3]) came out at 2.1 mg/kg.

With `Fc1ccc(Oc2ccc(-c3ccnc(-c4nc[nH]n4)n3)cc2)cc1` [2-[3-(1,2,4-triazolyl)]-4-[4-(4-fluorophenoxy)phenyl]pyrimidine], in assay [1], the Ki came to 5.91 µM.

As for `Fc1ccc(Oc2ccc(-c3ccnc(-c4ccno4)n3)cc2)cc1` [2-(5-isoxazolyl)-4-[4-(4-fluorophenoxy)phenyl]pyrimidine], the Ki in assay [1] turned out to be 2.63 µM.

For the compound `COC(=O)c1ccnc(-c2ccc(Oc3ccc(F)cc3)cc2)n1` [2-[4-(4-fluorophenoxy)phenyl]pyrimidine-4-carboxylic acid methyl ester], the Ki in assay [1] was determined as 71.5 µM.

On to `CN(C)C=NC(=O)c1ccnc(-c2ccc(Oc3ccc(Cl)cc3F)cc2)n1` [2-[4-(4-chloro-2-fluorophenoxy)phenyl]pyrimidine-4-carboxylic acid dimethylaminomethyleneamide], for which the figures for the ED50 in assay [2] (setting [3]) and in assay [2] (setting [4]) were 1.5 mg/kg and 4.1 mg/kg, respectively.

Regarding “4-[4-(4-fluorophenoxy)phenyl]pyrimidine-2-carbamate”, in assay [1], the Ki stood at 8.7 µM.

For `CCCCc1ccc(-c2cccc(C(N)=O)n2)cc1` [Compound 8b, 6-(4-n-butylphenyl)pyridine-2-carboxamide], the Ki in assay [1] is 10.5 µM.

Consider `COc1ccc(-c2cccc(C(N)=O)n2)cc1` [Compound 8f, 6-(4-methoxyphenyl)pyridine-2-carboxamide], for which the Ki in assay [1] was 23.9 µM.

`CNC(=O)c1nccc(-c2ccc(Oc3ccc(F)cc3)cc2)n1` [4-[4-(4-Fluorophenoxy)phenyl]-pyrimidine-2-carboxylic acid methylamide]: the ED50 in assay [2] (setting [3]) was determined as 2.8 mg/kg; in assay [2] (setting [4]), 6.1 mg/kg.

As to `Cc1cc(N(C)C)cc(-c2ccc(Oc3ccc(F)cc3)cc2)n1` [Compound 14, 2-Methyl-4-dimethylamino-6-[4-(4-fluorophenoxy)phenyl]pyridine], in assay [1], the Ki is 0.33 µM.

Take `COC(=O)c1nccc(-c2ccc(Oc3ccc(F)cc3F)cc2)n1` [4-[4-(2,4-difluorophenoxy)phenyl]pyrimidine-2-carboxylic acid methyl ester]: in assay [1], the Ki was 139 µM.

As to `CCOC(=O)c1nccc(-c2ccc(Oc3ccc(F)cc3)cc2)n1` [4-[4-(4-Fluorophenoxy)phenyl]-pyrimidine-2-carboxylic acid ethyl ester], the Ki in assay [1] stood at 9.86 µM.

Turning to `NC(=O)c1ccc(O)c(-c2ccc(Oc3ccccc3)cc2)n1` [5-hydroxy-6-(4-phenoxyphenyl)pyridine-2-carboxamide], in assay [1], the Ki amounted to 99.3 µM.

With `O=C(c1nccc(-c2ccc(Oc3ccc(F)cc3)cc2)n1)C(Br)Br` [1-[4-[4-(4-fluorophenoxy)phenyl]pyrimidine-2-yl]-2,2-dibromoethanone], in assay [1], the Ki amounted to 10.6 µM.

Regarding `COc1cc(C(=O)NCCN(C)C)nc(-c2ccc(Oc3ccc(F)cc3)cc2)c1` [Compound 19, 4-Methoxy-6-[4-(4-fluorophenoxy)phenyl]pyridine-2-carboxylic acid dimethylaminoethylamide], the Ki in assay [1] was determined as 0.32 µM.

`CC(C)(C)c1ccc(-c2cccc(C(N)=O)n2)cc1` [Compound 8a, 6-(4-tert-butylphenyl)pyridine-2-carboxamide]: the Ki in assay [1] is 6.13 µM.

Regarding `CN(C)c1nccc(-c2ccc(Oc3ccc(F)cc3)cc2)n1` [2-dimethylamino-4-[4-(4-fluorophenoxy)phenyl]pyrimidine], the Ki in assay [1] worked out at 27.6 µM.

Regarding `O=C(NCCCl)c1nccc(-c2ccc(Oc3ccc(F)cc3)cc2)n1` [4-[4-(4-fluorophenoxy)phenyl]pyrimidine-2-carboxylic acid 2-chloroethylamide], in assay [1], the Ki was determined as 2.62 µM.
